According to patent US20240182445A1 (ONO PHARMACEUTICAL CO., LTD., priority 2019, published 2024):
Entries after “also recorded” stand apart in the source; their conditions may differ.

Columns and labels:
CYP1A2 = molecular target: T1, CYP1A2 (Homo sapiens, UniProt P05177); assay: P450 inhibition 1A2; format: in vitro ADME
T1 sequence (P05177 1-516): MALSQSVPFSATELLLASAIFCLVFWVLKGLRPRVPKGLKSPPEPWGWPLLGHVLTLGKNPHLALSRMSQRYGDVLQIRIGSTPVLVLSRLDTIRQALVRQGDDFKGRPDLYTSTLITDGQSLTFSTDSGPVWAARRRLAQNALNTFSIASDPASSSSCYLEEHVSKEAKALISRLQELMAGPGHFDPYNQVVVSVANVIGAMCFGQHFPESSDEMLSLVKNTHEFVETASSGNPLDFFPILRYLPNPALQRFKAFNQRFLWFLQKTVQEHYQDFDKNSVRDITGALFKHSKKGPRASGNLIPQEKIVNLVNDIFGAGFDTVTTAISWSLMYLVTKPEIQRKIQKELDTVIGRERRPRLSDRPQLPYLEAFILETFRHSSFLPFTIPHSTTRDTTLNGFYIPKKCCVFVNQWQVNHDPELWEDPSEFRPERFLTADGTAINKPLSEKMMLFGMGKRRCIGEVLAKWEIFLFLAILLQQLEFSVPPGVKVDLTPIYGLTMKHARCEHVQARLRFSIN
Description: (§1) These assays were performed according to known methods as generally described in the following references: Conde-Ceide et al. ACS Med. Chem. Lett. 2015, 6, 716-720; Morris et al. J. Med. Chem. 2014, 57, 10192-10197; and Bubser et al. ACS Chem. Neurosci. 2014, 5, 920-942. Abbreviations which have been used in the descriptions of the following tables are; PPB is plasma protein binding; BHB is brain homogenate binding; and CLint is intrinsic clearance in hepatic microsomes.

[1] = Human hepatic microsomal intrinsic clearance; format: in vitro ADME; conditions: human hepatic microsomes
Description: as §1

CYP3A4 = CYP3A4 (Homo sapiens, UniProt P08684); assay: P450 inhibition 3A4; format: in vitro ADME
CYP3A4, sequence (P08684 whole entry): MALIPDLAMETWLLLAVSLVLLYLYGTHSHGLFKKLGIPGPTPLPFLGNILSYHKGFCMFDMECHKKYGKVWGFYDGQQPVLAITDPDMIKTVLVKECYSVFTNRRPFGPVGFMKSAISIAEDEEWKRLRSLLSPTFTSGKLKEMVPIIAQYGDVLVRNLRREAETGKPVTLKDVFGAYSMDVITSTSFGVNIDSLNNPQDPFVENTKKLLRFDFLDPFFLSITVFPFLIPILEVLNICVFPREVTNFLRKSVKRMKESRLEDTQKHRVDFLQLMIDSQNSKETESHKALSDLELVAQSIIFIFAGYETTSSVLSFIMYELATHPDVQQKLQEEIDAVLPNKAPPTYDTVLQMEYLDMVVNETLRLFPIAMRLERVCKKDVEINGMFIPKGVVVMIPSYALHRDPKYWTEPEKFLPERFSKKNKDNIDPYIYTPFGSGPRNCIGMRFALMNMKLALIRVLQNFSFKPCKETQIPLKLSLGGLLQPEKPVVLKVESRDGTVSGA
Description: as §1

[2] = Rat brain homogenate binding (BHB); format: in vitro ADME
Description: as §1

CYP2C9 = CYP2C9 (Homo sapiens, UniProt P11712); assay: P450 inhibition 2C9; format: in vitro ADME
CYP2C9, sequence (P11712 whole entry): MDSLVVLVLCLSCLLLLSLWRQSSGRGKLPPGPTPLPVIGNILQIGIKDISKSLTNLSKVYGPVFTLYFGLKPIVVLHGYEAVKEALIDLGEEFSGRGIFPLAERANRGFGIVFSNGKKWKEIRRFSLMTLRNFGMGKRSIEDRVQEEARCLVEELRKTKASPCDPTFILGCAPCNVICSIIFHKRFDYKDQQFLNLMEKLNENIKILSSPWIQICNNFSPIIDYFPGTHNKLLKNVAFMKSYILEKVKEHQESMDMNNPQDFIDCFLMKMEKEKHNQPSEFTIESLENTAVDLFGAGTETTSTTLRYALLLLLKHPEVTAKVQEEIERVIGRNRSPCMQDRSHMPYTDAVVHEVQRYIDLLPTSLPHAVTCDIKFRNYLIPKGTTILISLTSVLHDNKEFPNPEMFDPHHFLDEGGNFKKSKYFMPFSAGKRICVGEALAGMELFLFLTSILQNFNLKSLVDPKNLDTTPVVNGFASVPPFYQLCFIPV
Description: as §1

[3] = test system: MK-801-induced deficits in the Novel Object Recognition Task; assay: MK-801-induced novel object recognition test; format: in vivo, Sprague-Dawley rats; conditions: rats; 0.1 mg/kg, 0.3 mg/kg and 1 mg/kg; MK-801 0.2 mg/kg
Description: The term “MK-801-induced novel object recognition test” herein refers to the experiment to evaluate in vivo efficacy in the schizophrenic cognitive impairment animal model. The detail method is described below. MK-801 is also known as dizocilpine.
MK-801-Induced Novel Object Recognition Test:
Testing was performed using 6-week-old male Sprague Dawley rats. On the testing day, rats were habituated at the empty box for 10 minutes individually. The disclosed compound was administered orally 1 h prior, followed by administration of MK-801 (0.2 mg/kg, s.c.) 30 min prior to the acquisition trial for 10 min. The retention trial for 10 min was performed with the intertrial interval for 80 min. The rat was allowed to explore the same objects in the acquisition trial. In the retention trial, one of the objects used in the acquisition trial was replaced with a novel one. The exploration time of licking, sniffing or touching was measured in the retention trial. Efficacy of each compound at the dose of 0.3, 1, 3 or 10 mg/kg p.o. (n=12-15) was determined by the recognition index (exploration time to the novel object/total exploration time). The scores of MK-801/vehicle and MK-801/compound-treated groups were statistically analyzed by Dunnett's test.
MK-801 induced disruptions of Novel Object Recognition
Drugs: Test compounds were formulated in 10% Tween 80/90% sterile water vehicle. […]

CYP2D6 = CYP2D6 (Homo sapiens, UniProt P10635); assay: P450 inhibition 2D6; format: in vitro ADME
CYP2D6, sequence (P10635 whole entry): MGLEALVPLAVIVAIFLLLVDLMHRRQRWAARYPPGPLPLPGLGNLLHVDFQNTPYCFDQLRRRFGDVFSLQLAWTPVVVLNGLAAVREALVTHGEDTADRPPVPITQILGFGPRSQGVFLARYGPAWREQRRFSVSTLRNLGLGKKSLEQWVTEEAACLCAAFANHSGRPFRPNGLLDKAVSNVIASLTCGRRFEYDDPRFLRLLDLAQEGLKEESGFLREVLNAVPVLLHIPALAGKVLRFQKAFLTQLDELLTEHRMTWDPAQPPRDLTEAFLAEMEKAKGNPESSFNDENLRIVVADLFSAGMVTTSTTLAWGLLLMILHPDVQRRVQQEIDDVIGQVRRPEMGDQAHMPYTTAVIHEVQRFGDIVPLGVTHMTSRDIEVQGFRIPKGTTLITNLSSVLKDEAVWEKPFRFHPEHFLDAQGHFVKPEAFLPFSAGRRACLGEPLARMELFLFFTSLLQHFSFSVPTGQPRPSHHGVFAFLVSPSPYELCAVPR
Description: as §1

plasma protein = assay: Human plasma protein binding (PPB); format: in vitro ADME
Description: as §1

IC50 (CYP1A2): 8.6 µM | CLint scaled [1]: 16 mL/min/kg | IC50 (CYP3A4): > 30 µM | Rat BHB (% bound) [2]: 99.7 % bound | IC50 (CYP2C9): 5.7 µM | IC50 (CYP2D6): 4.5 µM | Human PPB (% bound) (plasma protein): 98.8 % bound
SMILES: CC(=O)N[C@H]1CC[C@@H](n2ncc(Cl)c2C(=O)Nc2ncc(C#Cc3ccccc3)cc2C)CC1 [Compound 12, 1-(cis-4-acetamidocyclohexyl)-4-chloro-N-(3-methyl-5-(phenylethynyl)pyridin-2-yl)-1H-pyrazole-5-carboxamide]
reversal of MK-801-induced deficits in the Novel Object Recognition Task [3]: dose-dependently reversed; also recorded: caused reversal
